Data from patent publication US10947226B2, “Bicyclic pyridone lactams and methods of use thereof” (Genentech, Inc., priority 2016, dated 2021).

Molecular target: human RIP1 kinase domain (2-375) (Homo sapiens (Human), UniProt Q13546)
Experiment: RIP1 kinase inhibition assay (biochemical, Transcreener ADP fluorescence polarization)
Conditions: Ki app (Morrison tight-binding fit); 50 nM enzyme, 50 μM ATP, 2 hours incubation, pH 7.5
Experimental: RIP1 Kinase Inhibition Assays (Biochemical Assay)
The compounds of the present invention were tested for their capacity to inhibit RIP1K activity as described below.
Enzyme assay: The ability of the receptor interacting protein kinase (RIPK1) to catalyze the hydrolysis of adenosine-5′-triphosphate (ATP) is monitored using the Transcreener ADP (adenosine-5′-diphosphate) assay (BellBrook Labs). Purified human RIP1 kinase domain (2-375) (50 nM) derived from a baculovirus-infected insect cell expression system is incubated with test compounds for 2 hours in 50 mM Hepes buffer (pH 7.5) containing 30 mM MgCl2, 1 mM dithiothreitol, 50 μM ATP, 0.002% Brij-35, and 0.5% dimethyl sulfoxide (DMSO). Reactions are quenched by the addition of 1× Bell Brooks Stop buffer B (20 mM Hepes (ph 7.5), 40 mM ethylenediaminetetraacetic acid and 0.02% Brij-35) containing an additional 12 mM EDTA and 55 μg/mL ADP2 antibody and 4 nM ADP-AlexaFluor® 633 tracer. The tracer bound to the antibody is displaced by the ADP generated during the RIP1K reaction, which causes a decrease in fluorescence polarization that is measured by laser excitation at 633 nm with a FP microplate reader M1000. Fractional activity was plotted against test article concentration. Using Genedata Screener software (Genedata; Basel, Switzerland), the data were fit to the tight-binding apparent inhibition constant (Ki^app) Morrison equation [Williams, J. W. and Morrison, J. F. (1979) The kinetics of reversible tight-binding inhibition. Methods Enzymol 63: 437-67]. The following equation was used to calculate fractional activity and Ki^app: […]
where [E]T and [I]T are the total concentrations of active enzyme and test article, respectively. […]

Chain of human RIP1 kinase domain (2-375) (Q13546 2-375): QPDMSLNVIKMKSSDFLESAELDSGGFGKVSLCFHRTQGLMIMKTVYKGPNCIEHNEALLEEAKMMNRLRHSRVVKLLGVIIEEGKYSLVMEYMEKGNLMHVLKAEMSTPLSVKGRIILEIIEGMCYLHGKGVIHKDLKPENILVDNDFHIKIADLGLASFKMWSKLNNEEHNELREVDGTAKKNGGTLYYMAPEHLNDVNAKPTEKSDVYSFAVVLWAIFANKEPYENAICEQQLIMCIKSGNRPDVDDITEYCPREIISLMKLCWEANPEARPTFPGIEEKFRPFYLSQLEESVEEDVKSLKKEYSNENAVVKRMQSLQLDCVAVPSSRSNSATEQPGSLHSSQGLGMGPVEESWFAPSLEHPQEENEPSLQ

| SMILES | Ki |
| --- | --- |
| CN1C(=O)[C@H](NC(=O)c2nc3n(n2)[C@H](c2ccccc2F)CC3)CCc2cn(CC3CC3)c(=O)cc21 (single isomer, unassigned) [Example 16] | 6900 nM |
| CN1C(=O)[C@@H](NC(=O)c2ncn(Cc3ccccc3)n2)CCc2c1ccc(=O)n2C (single isomer, unassigned) [Example 1] | 233 nM |
| CN1C(=O)[C@@H](NC(=O)c2nc3n(n2)[C@H](c2ccccc2F)CC3)CCc2cn(C)c(=O)cc21 [Example 13, (5S)-5-(2-fluorophenyl)-N-[(3S)-1,7-dimethyl-2,8-dioxo-4,5-dihydro-3H-pyrido[4,3-b]azepin-3-yl]-6,7-dihydro-5H-pyrrolo[1,2-b][1,2,4]triazole-2-carboxamide] | 81.1 nM |
| CN1C(=O)[C@H](NC(=O)c2nc3n(n2)[C@H](c2ccccc2F)CC3)CCc2cc(=O)n(C)cc21 (single isomer, unassigned) [Example 12] | > 10000 nM |
| CCn1cc2c(cc1=O)N(C)C(=O)[C@H](NC(=O)c1nc3n(n1)[C@H](c1ccccc1F)CC3)CC2 (single isomer, unassigned) [Example 20] | > 10000 nM |
| CN1C(=O)[C@@H](NC(=O)c2nc3n(n2)[C@H](c2ccccc2F)CC3)CCc2cc(=O)n(C)cc21 (single isomer, unassigned) [Example 11] | 231 nM |
| CN1C(=O)[C@@H](NC(=O)c2nc3n(n2)[C@H](c2ccccc2F)CC3)CCc2cn(CC3CC3)c(=O)cc21 (single isomer, unassigned) [Example 14] | 56 nM |
| CN1C(=O)[C@H](NC(=O)c2ncn(Cc3ccccc3F)n2)CCc2cc(=O)n(C)cc21 (single isomer, unassigned) [Example 10] | > 10000 nM |
| CCn1cc2c(cc1=O)N(C)C(=O)[C@@H](NC(=O)c1nc3n(n1)[C@H](c1ccccc1F)CC3)CC2 (single isomer, unassigned) [Example 18] | 110 nM |
| CCn1cc2c(cc1=O)N(C)C(=O)[C@H](NC(=O)c1ncn(Cc3ccccc3F)n1)CC2 (single isomer, unassigned) [Example 21] | > 10000 nM |
| CN1C(=O)[C@@H](NC(=O)c2ncn(Cc3ccccc3F)n2)CCc2cc(=O)n(C)cc21 (single isomer, unassigned) [Example 9] | 111 nM |
| CN1C(=O)[C@@H](NC(=O)c2ncn(Cc3ccccc3)n2)CCc2cc(=O)n(C)cc21 (single isomer, unassigned) [Example 7] | 173 nM |
| CN1C(=O)[C@H](NC(=O)c2ncn(Cc3ccccc3F)n2)CCc2c1ccc(=O)n2C (single isomer, unassigned) [Example 22] | > 10000 nM |
| CN1C(=O)[C@@H](NC(=O)c2ncn(Cc3ccccc3F)n2)CCc2cn(C)c(=O)cc21 (single isomer, unassigned) [Example 6] | 49 nM |
| CN1C(=O)[C@H](NC(=O)c2ncn(Cc3ccccc3F)n2)CCc2cn(CC3CC3)c(=O)cc21 (single isomer, unassigned) [Example 17] | 6900 nM |
| CN1C(=O)[C@@H](NC(=O)c2ncn(Cc3ccccc3F)n2)CCn2c1cccc2=O (single isomer, unassigned) [Example 4] | 290 nM |
| CN1C(=O)[C@H](NC(=O)c2ncn(Cc3ccccc3)n2)CCc2c1ccc(=O)n2C (single isomer, unassigned) [Example 23] | > 10000 nM |
| CCn1cc2c(cc1=O)N(C)C(=O)[C@@H](NC(=O)c1ncn(Cc3ccccc3F)n1)CC2 (single isomer, unassigned) [Example 19] | 110 nM |
| CN1C(=O)[C@H](NC(=O)c2ncn(Cc3ccccc3)n2)CCc2cc(=O)n(C)cc21 (single isomer, unassigned) [Example 8] | > 10000 nM |
| CN1C(=O)[C@@H](NC(=O)c2ncn(Cc3ccccc3F)n2)CCc2c1ccc(=O)n2C (single isomer, unassigned) [Example 2] | 156 nM |
| CN1C(=O)[C@@H](NC(=O)c2ncn(Cc3ccccc3)n2)CCn2c1cccc2=O (single isomer, unassigned) [Example 3] | 489 nM |
| CN1C(=O)[C@@H](NC(=O)c2ncn(Cc3ccccc3F)n2)CCc2cn(CC3CC3)c(=O)cc21 (single isomer, unassigned) [Example 15] | 39 nM |
| CN1C(=O)[C@@H](NC(=O)c2ncn(Cc3ccccc3)n2)CCc2cn(C)c(=O)cc21 (single isomer, unassigned) [Example 5] | 79 nM |
